Assay results: PubChem BioAssay (NCI)
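96-well plates; 48 h exposure; 5 concentrations. Endpoints by linear interpolation between flanking doses. Not reached: highest tested concentration assigned. GI50 is the concentration that inhibits growth by half. TGI denotes the concentration required for complete inhibition of growth.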

Experiments:
Assay in all cases: growth of human tumour cells (NCI), 48 h
CCRF-CEM leukemia = system: CCRF-CEM leukemia
SF-295 CNS = system: SF-295 CNS
SK-MEL-28 melanoma = system: SK-MEL-28 melanoma
NCI-H226 lung = system: NCI-H226 lung
SN12C renal = system: SN12C renal
NCI-H522 lung = system: NCI-H522 lung
M14 melanoma = system: M14 melanoma
MCF7 breast = system: MCF7 breast
T-47D breast = system: T-47D breast
HS 578T breast = system: HS 578T breast

| SMILES | TGI (CCRF-CEM leukemia) | TGI (SF-295 CNS) | TGI (SK-MEL-28 melanoma) | TGI (NCI-H226 lung) | TGI (SN12C renal) | TGI (NCI-H522 lung) | TGI (M14 melanoma) | GI50 (CCRF-CEM leukemia) | GI50 (SF-295 CNS) | GI50 (SK-MEL-28 melanoma) | GI50 (NCI-H226 lung) | GI50 (SN12C renal) | GI50 (NCI-H522 lung) | GI50 (MCF7 breast) | TGI (MCF7 breast) | GI50 (M14 melanoma) | GI50 (T-47D breast) | TGI (T-47D breast) | TGI (HS 578T breast) | GI50 (HS 578T breast) |
| --- | --- | --- | --- | --- | --- | --- | --- | --- | --- | --- | --- | --- | --- | --- | --- | --- | --- | --- | --- | --- |
| Clc1ccc(-c2c(C3=NCCN3)nnn2-c2ccccc2)cc1 | > 100 µM | > 100 µM | > 100 µM | > 100 µM | > 100 µM | > 100 µM | > 100 µM | – | – | – | – | – | – | – | – | – | – | – | – | – |
| CCC[CH2][Sn]1([CH2]CCC)[O]C(=O)c2ccc(N)cc2[O]1 | 1.85 µM | 2.76 µM | 1.48 µM | 2.64 µM | 2.37 µM | 0.179 µM | 2.18 µM | 0.0357 µM | 1.41 µM | 0.397 µM | 0.857 µM | 0.88 µM | 0.048 µM | 0.152 µM | 0.738 µM | 0.576 µM | – | – | – | – |
| CCOC(=O)C1=C(Nc2ccc(Cl)c(Cl)c2)OC/C1=N\NC(=O)Cc1ccccc1 | > 100 µM | > 100 µM | > 100 µM | > 100 µM | > 100 µM | > 100 µM | > 100 µM | – | – | – | – | – | – | – | – | – | – | – | – | – |
| COC(=O)C(CC(=O)c1c[nH]c2ccccc12)c1c[nH]c2ccccc12 (stereo not given) | 73.7 µM | > 10 µM | 42.1 µM | 54.3 µM | – | – | 41.9 µM | – | – | – | – | – | – | – | – | – | – | – | – | – |
| Clc1ccc2c(c1)C(N1CCNCC1)=Nc1ccccc1O2 | 4.77 µM | 3.82 µM | 2.96 µM | 11.9 µM | 13.6 µM | 3.87 µM | 3.07 µM | 1.9 µM | 1.92 µM | 1.61 µM | 2.57 µM | 2.87 µM | 1.82 µM | 1.62 µM | 3.05 µM | 1.68 µM | 1.91 µM | 4.58 µM | – | – |
| CC1(C)C=[N+]([O-])C(C)(C)N1O | > 10 µM | > 10 µM | – | > 10 µM | > 10 µM | > 10 µM | > 10 µM | – | – | – | – | – | – | – | > 10 µM | – | – | > 10 µM | – | – |
| CC1(C)C(=O)C=CC2(C)C1CC(O)C1(C)C2CCC2(C)C(c3ccoc3)OC(=O)C3OC321 (stereo not given) | 57.5 µM | 53.1 µM | 70.3 µM | 33.3 µM | 37.4 µM | 27.1 µM | > 100 µM | – | – | – | – | – | – | – | > 100 µM | – | – | – | – | – |
| C[C@]12CC[C@H]3[C@@H](CC[C@]4(O)C[C@@H](O)CC[C@]34CO)[C@@]1(O)CC[C@@H]2C1=CC(=O)OC1 | > 36.7 µM | 5.27 µM | 22.5 µM | 13.8 µM | 11 µM | 4.94 µM | 14.5 µM | – | – | – | – | – | – | – | – | – | – | 13.9 µM | > 100 µM | – |
| CCCCCCCCCCCCCC(=O)NCC(OCC)OCC | > 100 µM | > 100 µM | > 100 µM | > 100 µM | > 100 µM | > 100 µM | > 100 µM | – | – | – | – | – | – | – | – | – | – | – | – | – |
| Cc1cccc(N=C2NC(=O)C(CC(=O)Nc3ccc(C)cc3C)S2)c1 (stereo not given) | > 100 µM | > 100 µM | > 100 µM | > 100 µM | > 100 µM | > 100 µM | > 100 µM | – | – | – | – | – | – | – | – | – | – | – | – | – |
| COC(=O)C1Cc2c([nH]c3ccccc23)C(c2ccccc2O)N1Cc1ccccc1 (stereo not given) | > 46.4 µM | 42.6 µM | > 31.6 µM | > 46.4 µM | > 46.4 µM | > 31.6 µM | > 46.4 µM | – | – | – | – | – | – | – | – | – | – | – | – | – |
| CC1=C(/C=C/C(C)=C/C=C/C(C)=C/C=C/C=C(C)/C=C/C=C(C)/C=C/C2=C(C)C(=O)C(O)CC2(C)C)C(C)(C)CC(O)C1=O (stereo not given) | > 100 µM | > 100 µM | > 100 µM | > 100 µM | > 100 µM | > 100 µM | > 100 µM | – | – | – | – | – | – | – | – | – | – | – | – | – |
| COc1cc(C2c3cc4c(cc3[C@@H](OCCN(C)C)C3COC(=O)[C@H]23)OCO4)cc(OC)c1O (stereo not given in full) | – | 0.998 µM | 4.1 µM | 0.288 µM | 0.606 µM | 1.7 µM | 3.22 µM | – | – | – | – | – | – | – | – | – | – | – | – | – |
| Cc1c(C(=O)CC(=O)C(=O)Nc2cc(Cl)ccc2Cl)[n+](=O)c2ccccc2n1[O-] | > 100 µM | > 100 µM | > 100 µM | > 100 µM | > 100 µM | 53.6 µM | 64.4 µM | – | – | – | – | – | – | – | – | – | – | – | – | – |
| O=c1cc(-c2ccccn2)[nH]c2cc(F)ccc12 | – | > 100 µM | > 100 µM | > 100 µM | > 100 µM | > 100 µM | > 100 µM | – | – | – | – | – | – | – | – | – | – | – | – | – |
| CC[C@H](Nc1nc(N)nc(C2CC2)c1C#N)c1nc2cccc(NCc3ccc(C(=O)NO)cc3)c2c(=O)n1-c1ccccc1 | > 100 µM | – | 7.44 µM | 4.18 µM | 5.39 µM | 4.67 µM | 4.66 µM | 0.734 µM | – | 2.67 µM | 1.47 µM | 1.79 µM | 1.69 µM | 2.06 µM | 8.28 µM | 2.02 µM | 1.82 µM | 5.78 µM | 9.51 µM | 2.8 µM |
| O=C(N/N=C/c1ccc(Cl)cc1)c1[nH]c2ccc(Cl)cc2c1-c1ccccc1 | – | 2.58 µM | > 68.1 µM | > 44.5 µM | > 70.4 µM | 0.167 µM | 18.5 µM | 0.0986 µM | 0.0815 µM | 2.77 µM | 0.29 µM | 0.206 µM | 0.0458 µM | 0.115 µM | 21.7 µM | 0.0937 µM | 38.2 µM | > 100 µM | – | – |
| N#Cc1c(C[n+]2ccccc2)c2ccccc2oc1=O | > 100 µM | > 100 µM | > 100 µM | > 100 µM | > 100 µM | > 100 µM | > 100 µM | – | – | – | – | – | – | – | – | – | – | – | – | – |
| S=P(N1CCCC1)(N1CC1)N1CC1 | > 100 µM | > 100 µM | > 100 µM | > 100 µM | > 100 µM | > 100 µM | > 100 µM | – | – | – | – | – | – | – | – | – | – | – | – | – |
| COc1ccccc1NC(=O)C1=C(C)NC(C)=C(C(=O)Nc2ccccc2OC)C1c1ccc(N(C)C)cc1 | 52.4 µM | > 100 µM | 58 µM | 51.3 µM | > 100 µM | 53.7 µM | 69.7 µM | – | – | – | – | – | – | – | – | – | – | – | – | – |
| COc1cc(C2c3cc4c(cc3[C@@H](N(C)C)[C@H]3COC(=O)C23)OCO4)cc(OC)c1O (stereo not given in full) | > 100 µM | – | > 100 µM | > 100 µM | > 100 µM | 18.8 µM | > 100 µM | – | – | – | – | – | – | – | – | – | – | – | – | – |
| COC(=O)c1ccc(C(=O)OC)c2nc3cc(C)ccc3nc12 | > 100 µM | > 100 µM | > 100 µM | > 100 µM | > 100 µM | – | > 100 µM | – | – | – | – | – | – | – | – | – | – | – | – | – |
| COc1cc(/C=C/c2ccc(OC)c(OC)c2OC)cc(OC)c1OC | 85.8 µM | 55.7 µM | 37.7 µM | 39.7 µM | > 69.5 µM | > 51.6 µM | 77 µM | – | – | – | – | – | – | – | – | – | – | – | – | – |
